Data on one compound can be found in PMC12019328, “Discovery of an ApoE4-targeted small-molecule SirT1 enhancer for the treatment of Alzheimer’s disease” (Scientific Reports, 2025).

In one data set the test system is NFYb mRNA in Kelly cells. Kind of data set: NFYb mRNA in Kelly neuroblastoma cells. The conditions noted are these: 5 µM, 24 h, vs DMSO. The data set is classed as cell-based, human. How it is done:
Human neuroblastoma ‘Kelly’ cells (genotype APOE3/APOE4) were plated in 96-well plates at 50K cells per well and were grown overnight in RPMI 1640 supplemented with 2 mM Glutamine, 10% FBS and 1% Pen-Strep. Cells were treated with 5 µM DDL-214, -218, or -219; or DMSO vehicle (n = 8 per compound). Twenty-four hours later, medium was removed, cells washed and lysed as described above for N2a-E4 cells.
(§1) Total RNA was isolated from cells or brain tissue (Qiagen RNEasy kit). Total RNA (0.5–1.0 µg) mRNA was then converted to cDNA (SuperScript™ III First-Strand Synthesis SuperMix kit; Thermo Fisher), and gene mRNA levels were measured using a gene-specific qRT-PCR Taqman assays (Thermo Fisher). Gene mRNA levels were normalized to GAPDH mRNA levels measured either in the same cDNA sample or in the same qPCR reaction using multiplexing of gene-of-interest/VIC and GAPDH/FAM, normalized by the delta-delta-Ct method.

Data set [1] relates to SirT1 mRNA in N2a-E4 cells. The data set can be described thus: SirT1 mRNA in N2a-E4 cells (qRT-PCR). The data set is classed as cell-based, murine. As to conditions: 5 µM, 24 h, normalized to GAPDH and DMSO. As to the method: Relative SirT1 mRNA and protein enhancement by racemate DDL-214 and enantiomers DDL-218 and − 219 was determined in murine neuroblastoma cells stably transfected with ApoE4 (N2a-E4)[25]. All test compounds in DMSO were prepared at 2x the final concentration in DMEM supplemented with 10% fetal bovine serum (FBS) and 1% pen-strep (PS) and 50 µL of each loaded into individual wells of a 96-well plate. Previously cultured N2a-E4 were then trypsinized, harvested, centrifuged, and counted; then 50 µL of cell suspension adjusted to 400 cells/µL was added to each well. The plate was then incubated at 37 °C, 5% CO2 for 48 h. Cells were treated with DDL-214, DDL-218, or DDL-219 at 5 µM final then incubated for 24 h. […]
as §1

Another data set in a line: Kinetic solubility. The data set is classed as physicochemical. The conditions noted are these: aqueous buffer, kinetic from dmso stock, PBS pH 7.4, 37°C. As to the method:
supernatants were transferred to new tubes and lyophilized. Samples were reconstituted in 100 µL of 50/50/0.1 (Water/Acetonitrile/Formic Acid) prior to analysis via liquid chromatography-tandem mass spectrometry (LC-MS/MS).
Normalized chromatographic peak areas was plotted at each time point and the half-life (T1/2) of compound in liver microsomes was determined by using the trendline equation to calculate the time at which compound abundance was 50% of that at timepoint 0 (T0).
Kinetic solubility was assessed by separately diluting a test compound solution (10 mM, 100% DMSO) into the aqueous buffer (PBS pH 7.4) and DMSO at 100 μM, 100 μL total volume.
The solutions were then incubated at 37°C for 90 min and centrifuged (16000xg, 5 min). An aliquot (50 µL) of each supernatant was analyzed by LC-MS/MS.
Five standard concentrations (100, 10, 1, 0.1, and 0, DMSO) in duplicates were incubated at 37°C for 90 min and centrifuged (16000xg, 5 min). Aliquots (50 µL) of supernatant were analyzed by LC-MS/MS to create the standard curve.
Table S2. DDL-218 Physiochemical Properties
Kinetic solubility (μM) 64.4
Brain Tissue Binding [fu,bound (%)] 43 […]

For the next data set, the system named is NFYb mRNA. The data set can be described thus: Hippocampal NFYb mRNA in ApoE4-TR:5xFAD mice. The data set is classed as in vivo. As to conditions: 20 mg/Kg BID, 56 days, vs vehicle. As to the method: The active (-) enantiomer, DDL-218, underwent efficacy testing in ApoE4-TR:5xFAD mice[27] that were 6-7.5 months old at the start of treatment. ApoE4-TR:5xFAD male and female mice received either 20 mg/Kg DDL-218 BID (~ 8- to10-hour interval; total daily dose of 40 mkd) on weekdays and a single 40 mg/Kg dose on weekends (n = 12) or vehicle-only (n = 11); 8 C57BL/6 mice received vehicle-only as behavioral controls. Dosing was by the oral route and by oral feeding using a pipette as previously described, not gavage, as it is safer for repeated oral dosing than gavage. The dose of 20 mg/kg BID (40 mkd) was selected based on findings from PK analysis and was the highest feasible in the formulation used for oral feeding (compound is first solubilized in water, then mixed strawberry syrup diluted in water, for a final vehicle that is 25% syrup and 75% water). […]
as §1

In brackets after ≈: the same amount, converted by molar mass. Entries after “also recorded” stand apart in the source; their conditions may differ.

As a reminder, the kinetic solubility is the concentration staying in solution when a stock, usually in DMSO, is diluted into the medium. On to `CC(N)C(=O)OC(C)(C)Cc1ccncc1` (stereo not shown) [DDL-218], for which the “NFYb mRNA” value with NFYb mRNA in Kelly cells is recorded as “significantly increases NFYb mRNA”. In addition, in data set [1], the “SirT1 mRNA” value is given as “greatest increase; also recorded: significantly increased SirT1 mRNA”. Further, the solubility (kinetic) at 90 min in the data set “Kinetic solubility” was 64.4 µM (≈ 14.3 µg/mL). Moreover, in the data set on NFYb mRNA, the “hippocampal NFYb mRNA” value was “significantly increased”.
